Key:
[1] = Metabolic stability in rat liver microsomes assessed as half life measured for 75 to 130 mins by LC-MS/MS analysis; format: ADME, Microsome; conditions: time 75-130 min
[2] = test system: TMD8; test: Induction of apoptosis in human TMD8 cells assessed as early apoptotic cells at 1 uM incubated for 24 hrs by Annexin V-FITC/PI staining based flow cytometric analysis (reference value: 0.24%); format: functional
[3] = Metabolic stability in human liver microsomes assessed as intrinsic clearance measured for 75 to 130 mins by LC-MS/MS analysis; format: ADME, Microsome; conditions: liver microsomes, time 75-130 min, read-out: CLH
[4] = test system: TMD8; test: Induction of apoptosis in human TMD8 cells assessed as viable cells at 0.5 uM incubated for 24 hrs by Annexin V-FITC/PI staining based flow cytometric analysis (reference value: 96.4%); format: functional; conditions: read-out: Activity
[5] = test system: TMD8; test: Induction of apoptosis in human TMD8 cells assessed as necrotic cells at 4 uM incubated for 24 hrs by Annexin V-FITC/PI staining based flow cytometric analysis (reference value: 1.85%); format: functional
[6] = MRT(0 to infinity) in CB.17 SCID mouse xenografted with human TMD8 cells at 100 mg/kg, po measured upto 24 hrs by LC-MS/MS analysis; format: ADME, organism-based; conditions: in vivo
[7] = test system: TMD8; test: Induction of apoptosis in human TMD8 cells assessed as necrotic cells at 2 uM incubated for 24 hrs by Annexin V-FITC/PI staining based flow cytometric analysis (reference value: 1.85%); format: functional
[8] = AUC (0 to infinity) in CB.17 SCID mouse xenografted with human TMD8 cells at 25 mg/kg, po measured upto 24 hrs by LC-MS/MS analysis; format: ADME, organism-based; design: time < 24 hrs, dose 25 mg/kg, route po; conditions: in vivo
[9] = AUC (0 to infinity) in ICR mouse at 2 mg/kg, iv measured upto 24 hrs by LC-MS/MS analysis; format: ADME, organism-based; design: time < 24 hrs, dose 2 mg/kg, route iv; conditions: in vivo
[10] = test system: TMD8; test: Induction of apoptosis in human TMD8 cells assessed as late apoptotic cells at 0.5 uM incubated for 24 hrs by Annexin V-FITC/PI staining based flow cytometric analysis (reference value: 1.54%); format: functional
[11] = test system: TMD8; test: Antiproliferative activity against human TMD8 cells incubated for 72 hrs by luminescence assay; format: functional, cell-based; conditions: TMD8, 72 h
[12] = AUC (0 to infinity) in CB.17 SCID mouse xenografted with human TMD8 cells at 50 mg/kg, po measured upto 24 hrs by LC-MS/MS analysis; format: ADME, organism-based; design: dose 50 mg/kg, time < 24 hrs, route po; conditions: in vivo
[13] = test system: HuT78; test: Antiproliferative activity against human HuT78 cells incubated for 72 hrs by luminescence assay; format: functional, cell-based; conditions: HuT78, 72 h
[14] = test system: RS4-11; test: Antiproliferative activity against human RS4-11 cells incubated for 72 hrs by luminescence assay; format: functional, cell-based; conditions: RS4-11, 72 h
[15] = test system: TMD8; test: Induction of apoptosis in human TMD8 cells assessed as late apoptotic cells at 1 uM incubated for 24 hrs by Annexin V-FITC/PI staining based flow cytometric analysis (reference value: 1.54%); format: functional
[16] = test system: SU-DHL-2; test: Antiproliferative activity against human SUDHL2 cells incubated for 72 hrs by luminescence assay; format: functional, cell-based; conditions: SU-DHL-2, 72 h
[17] = test system: NCI-H460; test: Antiproliferative activity against human NCI-H460 cells incubated for 72 hrs by luminescence assay; format: functional, cell-based; conditions: NCI-H460, 72 h
[18] = test system: TMD8; test: Induction of apoptosis in human TMD8 cells assessed as early apoptotic cells at 4 uM incubated for 24 hrs by Annexin V-FITC/PI staining based flow cytometric analysis (reference value: 0.24%); format: functional
[19] = test system: HT-29; test: Antiproliferative activity against human HT-29 cells incubated for 72 hrs by luminescence assay; format: functional, cell-based; conditions: HT-29, 72 h
[20] = Oral bioavailability in ICR mouse at 25 mg/kg measured upto 24 hrs by LC-MS/MS analysis; format: ADME, organism-based; conditions: in vivo
[21] = target: Histone deacetylase 1 (Homo sapiens, UniProt Q13547); test: Inhibition of HDAC1 (unknown origin) using RHKK(Ac)AMC fluorogenic peptide as substrate preincubated for 10 mins followed by substrate addition for 1 hr in presence of ATP by fluoroscence based assay
Histone deacetylase 1, sequence (Q13547 whole entry): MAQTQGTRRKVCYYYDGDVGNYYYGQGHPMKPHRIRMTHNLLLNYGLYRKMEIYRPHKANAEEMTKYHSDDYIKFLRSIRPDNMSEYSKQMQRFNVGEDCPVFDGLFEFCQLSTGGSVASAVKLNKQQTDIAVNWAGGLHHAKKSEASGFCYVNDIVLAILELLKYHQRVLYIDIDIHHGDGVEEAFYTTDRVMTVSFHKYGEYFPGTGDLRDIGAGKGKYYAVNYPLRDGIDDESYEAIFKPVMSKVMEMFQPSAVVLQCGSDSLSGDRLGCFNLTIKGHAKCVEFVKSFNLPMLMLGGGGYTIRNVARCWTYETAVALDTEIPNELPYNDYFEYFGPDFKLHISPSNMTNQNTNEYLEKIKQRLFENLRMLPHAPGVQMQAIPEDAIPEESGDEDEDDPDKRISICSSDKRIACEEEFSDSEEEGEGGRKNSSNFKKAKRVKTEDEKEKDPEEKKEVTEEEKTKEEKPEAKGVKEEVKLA

[22] = Metabolic stability in monkey liver microsomes assessed as intrinsic clearance measured for 75 to 130 mins by LC-MS/MS analysis; format: ADME, Macaca fascicularis, Microsome; conditions: cynomolgus monkey, time 75-130 min, read-out: CLH
[23] = Cmax in CB.17 SCID mouse xenografted with human TMD8 cells at 50 mg/kg, po measured upto 24 hrs by LC-MS/MS analysis; format: ADME, organism-based; design: dose 50 mg/kg, time < 24 hrs, route po; conditions: in vivo
[24] = AUC (0 to t) in CB.17 SCID mouse xenografted with human TMD8 cells at 100 mg/kg, po measured upto 24 hrs by LC-MS/MS analysis; format: ADME, organism-based; design: dose 100 mg/kg, time < 24 hrs, route po; conditions: in vivo
[25] = test system: TMD8; test: Induction of apoptosis in human TMD8 cells assessed as viable cells at 4 uM incubated for 24 hrs by Annexin V-FITC/PI staining based flow cytometric analysis (reference value: 96.4%); format: functional; conditions: read-out: Activity
[26] = test system: TMD8; test: Induction of apoptosis in human TMD8 cells assessed as late apoptotic cells at 2 uM incubated for 24 hrs by Annexin V-FITC/PI staining based flow cytometric analysis (reference value: 1.54%); format: functional
[27] = test system: HCT-116; test: Antiproliferative activity against human HCT-116 cells incubated for 72 hrs by luminescence assay; format: functional, cell-based; conditions: HCT-116, 72 h
[28] = MRT (0 to t) in CB.17 SCID mouse xenografted with human TMD8 cells at 100 mg/kg, po measured upto 24 hrs by LC-MS/MS analysis; format: ADME, organism-based; conditions: in vivo
[29] = Cmax in CB.17 SCID mouse xenografted with human TMD8 cells at 25 mg/kg, po measured upto 24 hrs by LC-MS/MS analysis; format: ADME, organism-based; design: dose 25 mg/kg, time < 24 hrs, route po; conditions: in vivo
[30] = Cmax in ICR mouse at 25 mg/kg, po measured upto 24 hrs by LC-MS/MS analysis; format: ADME, organism-based; design: time < 24 hrs, dose 25 mg/kg, route po; conditions: in vivo
[31] = test system: A549; test: Antiproliferative activity against human A549 cells assessed as remaining cell activity at 2 uM incubated for 72 hrs by luminescence assay relative to control; format: functional
[32] = MRT (0 to t) in CB.17 SCID mouse xenografted with human TMD8 cells at 50 mg/kg, po measured upto 24 hrs by LC-MS/MS analysis; format: ADME, organism-based; conditions: in vivo
[33] = test system: NCI-H441; test: Antiproliferative activity against human NCI-H441 cells incubated for 72 hrs by luminescence assay; format: functional, cell-based; conditions: NCI-H441, 72 h
[34] = target: Histone deacetylase 8 (Homo sapiens, UniProt Q9BY41); test: Inhibition of HDAC8 (unknown origin) using RHK(Ac)K(Ac)AMC fluorogenic peptide as substrate preincubated for 10 mins followed by substrate addition for 2 hr in presence of ATP by fluoroscence based assay
Histone deacetylase 8, sequence (Q9BY41 whole entry): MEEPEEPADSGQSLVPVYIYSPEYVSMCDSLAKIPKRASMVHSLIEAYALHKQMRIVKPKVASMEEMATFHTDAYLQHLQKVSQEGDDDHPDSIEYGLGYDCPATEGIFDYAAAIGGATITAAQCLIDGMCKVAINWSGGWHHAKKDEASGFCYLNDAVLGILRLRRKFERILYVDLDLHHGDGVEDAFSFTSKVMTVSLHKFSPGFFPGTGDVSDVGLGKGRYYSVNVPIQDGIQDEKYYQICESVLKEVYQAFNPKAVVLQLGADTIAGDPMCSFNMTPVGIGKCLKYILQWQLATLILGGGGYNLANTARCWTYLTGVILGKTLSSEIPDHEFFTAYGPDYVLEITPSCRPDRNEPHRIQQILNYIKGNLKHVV

[35] = test system: TMD8; test: Induction of apoptosis in human TMD8 cells assessed as necrotic cells at 1 uM incubated for 24 hrs by Annexin V-FITC/PI staining based flow cytometric analysis (reference value: 1.85%); format: functional
[36] = test system: Rec1; test: Antiproliferative activity against human REC1 cells incubated for 72 hrs by luminescence assay; format: functional, cell-based; conditions: Rec1, 72 h
[37] = Metabolic stability in mouse liver microsomes assessed as half life measured for 75 to 130 mins by LC-MS/MS analysis; format: ADME, Microsome; conditions: time 75-130 min
[38] = MRT(0 to infinity) in CB.17 SCID mouse xenografted with human TMD8 cells at 25 mg/kg, po measured upto 24 hrs by LC-MS/MS analysis; format: ADME, organism-based; conditions: in vivo

Q: For `Nc1ccccc1NC(=O)c1ccc(CN2CCC/C(=C\c3ccccn3)C2=O)cc1`, which half-life [1] is on record?
A: 1.75 h

Q: What about the Activity [2] of the same molecule?
A: 1.03%

Q: And the microsomal CLint [3]?
A: 1.7 µL/min/mg

Q: And the viability at 0.5 µM [4]?
A: 95.8%

Q: And the Activity [5]?
A: 8.19%

Q: And the MRT inf [6]?
A: 1.51 h

Q: And the Activity [7]?
A: 6.52%

Q: And the AUC(0-inf) [8]?
A: 1230 ng·h/mL

Q: And the AUC(0-inf) [9]?
A: 1040 ng·h/mL

Q: And the Activity [10]?
A: 1.59%

Q: And the IC50 [11]?
A: 310 nM

Q: What about the AUC(0-inf) [12] of the same molecule?
A: 9730 ng·h/mL

Q: And the IC50 [13]?
A: 800 nM

Q: What about the IC50 [14] of the same molecule?
A: 470 nM

Q: What about the Activity [15] of the same molecule?
A: 3.13%

Q: And the IC50 [16]?
A: 510 nM

Q: What about the IC50 [17] of the same molecule?
A: 1580 nM

Q: And the Activity [18]?
A: 24.8%

Q: And the IC50 [19]?
A: 2410 nM

Q: And the bioavailability [20]?
A: 39.9%

Q: And the IC50 [21]?
A: 84.9 nM

Q: What about the microsomal CLint [22] of the same molecule?
A: 14.1 µL/min/mg

Q: And the Cmax [23]?
A: 14700 ng/mL

Q: And the AUC(0-t) at 24 h [24]?
A: 9740 ng·h/mL

Q: And the viability at 4 µM [25]?
A: 57.4%

Q: What about the Activity [26] of the same molecule?
A: 7.94%

Q: And the IC50 [27]?
A: 1160 nM

Q: What about the MRT last at 24 h [28] of the same molecule?
A: 1.43 h

Q: What about the Cmax [29] of the same molecule?
A: 1700 ng/mL

Q: And the Cmax [30]?
A: 3100 ng/mL

Q: And the Activity [31]?
A: 48.53%

Q: And the MRT last at 24 h [32]?
A: 0.812 h

Q: What about the IC50 [33] of the same molecule?
A: 2620 nM

Q: What about the IC50 [34] of the same molecule?
A: > 10000 nM

Q: What about the Activity [35] of the same molecule?
A: 3.64%

Q: And the IC50 [36]?
A: 330 nM

Q: What about the half-life [37] of the same molecule?
A: 2.88 h

Q: And the MRT inf [38]?
A: 0.805 h

— ChEMBL document CHEMBL5154672, “Design and synthesis of HDAC inhibitors to enhance the therapeutic effect of diffuse large B-cell lymphoma by improving metabolic stability and pharmacokinetic characteristics” (Eur J Med Chem, 2022)
